The conditions of series [1]: rcm bond, Hoveyda-Grubbs 2nd generation catalyst.
Series [2] has as its system HCV replicon 1a (human hepatoma Huh-7 cell line harboring a HCV replicon). Kind of series: microbe, parasite or virus in culture. The format is cell-based. The note with it: for inhibition at 1 µM: Hepatitis C virus, Huh-7, 72 h, read-out: Replicon 1a % inhibition at 1 μm. Background: A replicon is a self-replicating genome or part of one, used to study replication in cells.

Where two headings read alike, the source gives them in different places.

A word on the inhibition: it is the percentage by which the read-out fell short of the control.

Molecule `CC1C=Cc2cc3cc(ccc3cn2)[C@@H](C)OC(=O)[C@@H]2CCCN(N2)C(=O)[C@H](C)NC(=O)[C@H](C(C)C)NC1=O` (some centres unmarked) showed a ring closure, yield of all isomers in series [1] (from C=Cc1cc2cc([C@@H](C)OC(=O)[C@@H]3CCCN(C(=O)[C@H](C)NC(=O)[C@@H](NC(=O)C(C)C=C)C(C)C)N3)ccc2cn1, toluene, 2.6 mM, 111.0 °C, 3.0 h) of 1%.
Regarding `CC(C)[C@@H]1NC(=O)[C@H](C)/C=C/c2ccc3ccc(nc3c2)[C@@H](C)OC(=O)[C@@H]2CCCN(N2)C(=O)[C@H](C)NC1=O` [Example 26], in series [2], the “Replicon 1a % inhibition at 1 μm” value turned out to be 99%.
For the molecule `CC(C)[C@@H]1NC(=O)CC=Cc2cc3cc(ccc3cn2)[C@@H](C)OC(=O)[C@@H]2CCCN(N2)C(=O)[C@H](C)NC1=O`, the ring closure, yield of all isomers in series [1] (from C=Cc1cc2cc([C@@H](C)OC(=O)[C@@H]3CCCN(C(=O)[C@H](C)NC(=O)[C@@H](NC(=O)C/C=C/C)C(C)C)N3)ccc2cn1, toluene, 3.33 mM, 110.0 °C, 1.0 h) amounted to 23.5%.
Regarding `CC(C)[C@@H]1NC(=O)[C@H](C)C/C=C/COc2ccc(F)c(c2)[C@@H](C)OC(=O)[C@@H]2CCCN(N2)C(=O)[C@H](C)NC1=O` [Example 35], the inhibition at 1 µM in series [2] amounted to 94%.
Take `CO[C@@H]1CCC=Cc2ccc3c(c2)[C@@H](CC3)N(C)C(=O)[C@@H]2CCCN(N2)C(=O)[C@H](C)NC(=O)[C@H](C(C)C)NC(=O)[C@@H]1C`: the ring closure, yield of all isomers in series [1] (from C=CCC[C@@H](OC)[C@@H](C)C(=O)N[C@H](C(=O)N[C@@H](C)C(=O)N1CCC[C@@H](C(=O)N(C)[C@@H]2CCc3ccc(C=C)cc32)N1)C(C)C, 1,2-dichloroethane, 3.9 mM, 83.0 °C, 1.5 h) worked out at 5%.
In turn, `C[C@@H]1NC(=O)[C@H](Cc2ccccc2)NC(=O)CC=Cc2cc3cc(ccc3cn2)[C@@H](C)OC(=O)[C@@H]2CCCN(N2)C1=O` gave a ring closure, yield of all isomers in series [1] (from C=Cc1cc2cc([C@@H](C)OC(=O)[C@@H]3CCCN(C(=O)[C@H](C)NC(=O)[C@H](Cc4ccccc4)NC(=O)C/C=C/C)N3)ccc2cn1, chlorobenzene, 4.96 mM, 110.0 °C, 3.0 h) of 12%.
In series [1] (from C=CCC[C@@H](O[Si](C)(C)C(C)(C)C)[C@@H](C)C(=O)N[C@H](C(=O)N[C@@H](C)C(=O)N1CCC[C@@H](C(=O)N[C@H](C)c2cccc(C=C)c2)N1)C(C)C, 1,2-dichloroethane, 2.8 mM, 80.0 °C, 1.0 h), `CC(C)[C@@H]1NC(=O)[C@H](C)[C@H](O[Si](C)(C)C(C)(C)C)CCC=Cc2cccc(c2)[C@@H](C)NC(=O)[C@@H]2CCCN(N2)C(=O)[C@H](C)NC1=O` came in with a ring closure, yield of all isomers of 43%.
In series [1] (from C=CCCCCC(=O)N[C@H](C(=O)N[C@@H](C)C(=O)N1CCC[C@@H](C(=O)O[C@H](C)c2ccc3cnc(C=C)cc3c2)N1)C(C)C, toluene, 2.16 mM, 111.0 °C, 0.5 h), `CC(C)[C@@H]1NC(=O)CCCCC=Cc2cc3cc(ccc3cn2)[C@@H](C)OC(=O)[C@@H]2CCCN(N2)C(=O)[C@H](C)NC1=O` returned a ring closure, yield of all isomers of 31%.
With `CC[C@@H]1C=Cc2cc3cc(ccc3cn2)[C@@H](C)OC(=O)[C@@H]2CCCN(N2)C(=O)[C@H](C)NC(=O)[C@H](C(C)C)NC1=O`, the ring closure, yield of all isomers in series [1] (from C=Cc1cc2cc([C@@H](C)OC(=O)[C@@H]3CCCN(C(=O)[C@H](C)NC(=O)[C@@H](NC(=O)[C@@H](/C=C/C)CC)C(C)C)N3)ccc2cn1, toluene, 3.0 mM, 120.0 °C, 4.0 h) was determined as 1%.
On to `CC(C)[C@@H]1NC(=O)CCC(C)(C)CC=Cc2cccc(c2)[C@@H](C)NC(=O)[C@@H]2CCCN(N2)C(=O)[C@H](C)NC1=O`, for which the ring closure, yield of all isomers in series [1] (from C=CCC(C)(C)CCC(=O)N[C@H](C(=O)N[C@@H](C)C(=O)N1CCC[C@@H](C(=O)N[C@H](C)c2cccc(C=C)c2)N1)C(C)C, 1,2-dichloroethane, 3.38 mM, 80.0 °C, 1.0 h) is 8%.
As to `CO[C@@H]1C=Cc2cc3cc(ccc3cn2)[C@@H](C)OC(=O)C2(C)CCCN(N2)C(=O)[C@H](C)NC(=O)[C@H](C(C)C)NC(=O)[C@@H]1C` (some centres unmarked), the ring closure, yield of all isomers in series [1] (from C=Cc1cc2cc([C@@H](C)OC(=O)C3(C)CCCN(C(=O)[C@H](C)NC(=O)[C@@H](NC(=O)[C@H](C)[C@@H](/C=C/C)OC)C(C)C)N3)ccc2cn1, toluene, 3.06 mM, 111.0 °C, 3.5 h) came out at 21%.
With `CC(C)[C@@H]1NC(=O)C(C)(C)c2cccc(c2)-c2cc3cc(ccc3cn2)[C@@H](C)OC(=O)[C@@H]2CCCN(N2)C(=O)[C@H](C)NC1=O` [Compound 67], the inhibition at 1 µM in series [2] stood at 97%.
`C[C@@H]1NC(=O)[C@H](CCn2cc(CO)nn2)NC(=O)C(C)(C)/C=C/c2cc3cc(ccc3cn2)[C@@H](C)OC(=O)[C@@H]2CCCN(N2)C1=O` [Compound 72]: in series [2], the “Replicon 1a % inhibition at 1 μm” value was found to be 0%.
Still for that read-out and setting: the value for `CO[C@@H]1/C=C/COc2cccc(c2)[C@@H](C(C)C)NC(=O)[C@@H]2CCCN(N2)C(=O)[C@H](C)NC(=O)[C@H](C(C)C)NC(=O)[C@@H]1C` [Example 37, (E)-(2R,5S,11S,14S,17R,18R)-2,14-Diisopropyl-18-methoxy-11,17-di methyl-22-oxa-3,9,12,15,28-pentaaza-tricyclo[21.3.1.1*5,9]octacosa-1(27),19,23,25-tetraene-4,10,13,16-tetraone] was 76%.
`CC(C)[C@@H]1NC(=O)[C@H](C)CC=Cc2cc3cc(ccc3cn2)[C@@H](C)OC(=O)[C@@H]2CCCN(N2)C(=O)[C@H](C)NC1=O`: the ring closure, yield of all isomers in series [1] (from C=CC[C@@H](C)C(=O)N[C@H](C(=O)N[C@@H](C)C(=O)N1CCC[C@@H](C(=O)O[C@H](C)c2ccc3cnc(C=C)cc3c2)N1)C(C)C, toluene, 3.0 mM, 120.0 °C, 3.0 h) came out at 22%.
For `C[C@@H]1NC(=O)[C@H](CO[Si](C)(C)C(C)(C)C)NC(=O)CC=Cc2cc3cc(ccc3cn2)[C@@H](C)OC(=O)[C@@H]2CCCN(N2)C1=O`, the ring closure, yield of all isomers in series [1] (from C=Cc1cc2cc([C@@H](C)OC(=O)[C@@H]3CCCN(C(=O)[C@H](C)NC(=O)[C@H](CO[Si](C)(C)C(C)(C)C)NC(=O)C/C=C/C)N3)ccc2cn1, toluene, 2.98 mM, 105.0 °C, 0.58 h) is 38%.
Turning to `CC(C)[C@@H]1NC(=O)CC=Cc2ccc3ccc(cc3n2)[C@@H](C)OC(=O)[C@@H]2CCCN(N2)C(=O)[C@H](C)NC1=O`, in series [1] (from C=CCC(=O)N[C@H](C(=O)N[C@@H](C)C(=O)N1CCC[C@@H](C(=O)O[C@H](C)c2ccc3ccc(C=C)nc3c2)N1)C(C)C, 1,2-dichloroethane, 18.2 mM, 100.0 °C, 1.0 h), the ring closure, yield of all isomers amounted to 3%.
Take `C[C@@H]1NC(=O)[C@H](CCc2ccccc2)NC(=O)CC=Cc2cc3cc(ccc3cn2)[C@@H](C)OC(=O)[C@@H]2CCCN(N2)C1=O`: the ring closure, yield of all isomers in series [1] (from C=Cc1cc2cc([C@@H](C)OC(=O)[C@@H]3CCCN(C(=O)[C@H](C)NC(=O)[C@H](CCc4ccccc4)NC(=O)C/C=C/C)N3)ccc2cn1, chlorobenzene, 4.81 mM, 110.0 °C, 3.5 h) was 12%.
The molecule `CC(C)[C@@H]1NC(=O)CC=Cc2cc3cc(ccc3cn2)[C@@H](C)NC(=O)[C@@H]2CCCN(N2)C(=O)[C@H](C)NC1=O` came in with a ring closure, yield of all isomers in series [1] (from C=CCC(=O)N[C@H](C(=O)N[C@@H](C)C(=O)N1CCC[C@@H](C(=O)N[C@H](C)c2ccc3cnc(C=C)cc3c2)N1)C(C)C, toluene, 3.86 mM, 111.0 °C, 3.0 h) of 2.2%.
As for `CO[C@@H]1C=Cc2cc3cc(ccc3cn2)[C@@H](C)NC(=O)[C@@H]2CCCN(N2)C(=O)[C@H](C)NC(=O)[C@H](C(C)C)NC(=O)[C@@H]1C`, the ring closure, yield of all isomers in series [1] (from C=Cc1cc2cc([C@@H](C)NC(=O)[C@@H]3CCCN(C(=O)[C@H](C)NC(=O)[C@@H](NC(=O)[C@H](C)[C@@H](/C=C/C)OC)C(C)C)N3)ccc2cn1, toluene, 3.33 mM, 110.0 °C, 8.0 h) is 26%.
`CO[C@@H]1CCC=Cc2cccc(c2)C2CCCCN2C(=O)[C@@H]2CCCN(N2)C(=O)[C@H](C)NC(=O)[C@H](C(C)C)NC(=O)[C@@H]1C` (some centres unmarked) showed a ring closure, yield of all isomers in series [1] (from C=CCC[C@@H](OC)[C@@H](C)C(=O)N[C@H](C(=O)N[C@@H](C)C(=O)N1CCC[C@@H](C(=O)N2CCCCC2c2cccc(C=C)c2)N1)C(C)C, 1,2-dichloroethane, 3.05 mM, 84.0 °C, 2.5 h) of 18%.
`CC(C)[C@@H]1NC(=O)[C@H](C)CC=CCOc2ccc(F)c(c2)[C@@H](C)OC(=O)[C@@H]2CCCN(N2)C(=O)[C@H](C)NC1=O`: the ring closure, yield of all isomers in series [1] (from C=CCOc1ccc(F)c([C@@H](C)OC(=O)[C@@H]2CCCN(C(=O)[C@H](C)NC(=O)[C@@H](NC(=O)[C@H](C)CC=C)C(C)C)N2)c1, 1,2-dichloroethane, 3.0 mM, 83.0 °C, 2.0 h) came out at 20%.
On to `CC(C)[C@@H]1NC(=O)CC=Cc2cc3cc(ccc3cn2)[C@@H](C(F)(F)F)NC(=O)[C@@H]2CCCN(N2)C(=O)[C@H](C)NC1=O`, for which the ring closure, yield of all isomers in series [1] (from C=CCC(=O)N[C@H](C(=O)N[C@@H](C)C(=O)N1CCC[C@@H](C(=O)N[C@@H](c2ccc3cnc(C=C)cc3c2)C(F)(F)F)N1)C(C)C, toluene, 3.04 mM, 120.0 °C, 2.83 h) worked out at 3%.
In turn, `C[C@@H]1NC(=O)[C@H]([C@@H](C)O[Si](C)(C)C(C)(C)C)NC(=O)CC=Cc2cc3cc(ccc3cn2)[C@@H](C)OC(=O)[C@@H]2CCCN(N2)C1=O` came in with a ring closure, yield of all isomers in series [1] (from C=Cc1cc2cc([C@@H](C)OC(=O)[C@@H]3CCCN(C(=O)[C@H](C)NC(=O)[C@@H](NC(=O)C/C=C/C)[C@@H](C)O[Si](C)(C)C(C)(C)C)N3)ccc2cn1, toluene, 2.94 mM, 105.0 °C, 1.0 h) of 42%.
In the case of `CC(C)[C@@H]1NC(=O)CCCC=Cc2cc3cc(ccc3cn2)[C@@H](C)OC(=O)[C@@H]2CCCN(N2)C(=O)[C@H](C)NC1=O`, the ring closure, yield of all isomers in series [1] (from C=CCCCC(=O)N[C@H](C(=O)N[C@@H](C)C(=O)N1CCC[C@@H](C(=O)O[C@H](C)c2ccc3cnc(C=C)cc3c2)N1)C(C)C, toluene, 2.41 mM, 111.0 °C, 0.5 h) is 63%.
In turn, `C[C@@H]1NC(=O)[C@H](C2CCCCC2)NC(=O)CC=Cc2cc3cc(ccc3cn2)[C@@H](C)OC(=O)[C@@H]2CCCN(N2)C1=O` returned a ring closure, yield of all isomers in series [1] (from C=Cc1cc2cc([C@@H](C)OC(=O)[C@@H]3CCCN(C(=O)[C@H](C)NC(=O)[C@@H](NC(=O)C/C=C/C)C4CCCCC4)N3)ccc2cn1, toluene, 5.0 mM, 110.0 °C, 2.0 h) of 7%.

Source of the values: US10246486B2, “Macrocyclic inhibitors of flaviviridae viruses” (Gilead Sciences, Inc., priority 2012, dated 2019).
